Measured values from patent publication US20210379066A1, “COMBINATIONS OF POSITIVE ALLOSTERIC MODULATORS AND NICOTINIC ACETYLCHOLINE RECEPTOR AGONISTS FOR TREATING OCULAR CONDITIONS” (Oyster Point Pharma, Inc., priority 2018, published 2021).
Several values for one entry are separate records, joined by “and”; a condition that tells them apart may be missing. Identical values can stand only once. Like-named read-outs stand apart in the source and are kept apart here.

Legend:
[1] = target: nAChR subtype alpha3beta2 (Homo sapiens, UniProt P17787+P32297); assay: Agonist characterisation versus ACh response (description); type: cell-based
Chain of nAChR subtype alpha3beta2 (P32297 32-505): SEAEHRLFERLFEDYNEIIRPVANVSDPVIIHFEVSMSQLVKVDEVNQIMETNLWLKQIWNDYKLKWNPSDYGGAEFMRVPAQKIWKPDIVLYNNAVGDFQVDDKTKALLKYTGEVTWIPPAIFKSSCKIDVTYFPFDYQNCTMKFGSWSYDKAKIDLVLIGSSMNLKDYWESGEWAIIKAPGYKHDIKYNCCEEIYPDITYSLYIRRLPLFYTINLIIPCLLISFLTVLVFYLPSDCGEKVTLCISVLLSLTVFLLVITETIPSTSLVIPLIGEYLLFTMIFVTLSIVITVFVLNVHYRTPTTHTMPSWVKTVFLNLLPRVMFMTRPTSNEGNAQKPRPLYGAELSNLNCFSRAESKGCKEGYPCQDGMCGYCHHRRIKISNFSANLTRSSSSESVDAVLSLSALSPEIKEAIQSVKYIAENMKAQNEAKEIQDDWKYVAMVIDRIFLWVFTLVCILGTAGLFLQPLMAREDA
Chain of nAChR subtype alpha3beta2 (P17787 26-502): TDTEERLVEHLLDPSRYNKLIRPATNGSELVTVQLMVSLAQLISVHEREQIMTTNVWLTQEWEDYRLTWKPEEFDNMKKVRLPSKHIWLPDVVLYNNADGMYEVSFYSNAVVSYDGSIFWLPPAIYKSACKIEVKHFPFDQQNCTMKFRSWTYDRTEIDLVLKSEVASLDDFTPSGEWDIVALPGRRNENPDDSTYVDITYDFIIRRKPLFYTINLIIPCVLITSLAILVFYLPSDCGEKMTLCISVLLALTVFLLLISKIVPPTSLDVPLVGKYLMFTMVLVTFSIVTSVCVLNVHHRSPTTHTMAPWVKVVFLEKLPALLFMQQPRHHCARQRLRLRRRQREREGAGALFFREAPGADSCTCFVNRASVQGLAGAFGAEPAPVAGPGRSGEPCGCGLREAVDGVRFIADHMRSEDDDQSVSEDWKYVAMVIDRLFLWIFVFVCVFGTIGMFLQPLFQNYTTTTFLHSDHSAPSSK
Text: nAChR agonist response, from which receptor activation can be determined can, for example, be generated using an appropriate cell-based assay. Cells designed to express a particular nAChR receptor subtype and generate an electrical current response when bound to and activated by a nAChR agonist can be used to characterize the agonist profile of a compound and the amount of receptor activation thus determined. An example of a generic protocol is described below.
Cells that express a particular human nAChR subtype are first exposed to ACh. ACh binds and activates the receptor, thereby evoking a current. The concentration of the ACh is chosen to elicit the maximum response of the receptor (e.g., 1280 micromolar ACh). This current is recorded as the ACh response and serves as the 100% nAChR agonist response and to which responses to other nAChR agonists are compared. After washing, the cells are exposed to a nAChR agonist at various concentrations (e.g., 0.1, 0.3, 1, 3, 10, 30, 100, and 300 micromolar). The current evoked by exposure to the nAChR agonist is measured and recorded for each nAChR concentration. This nAChR agonist response data is then normalized to unity versus the maximal ACh evoked current and plotted as a function of the logarithm of the nAChR agonist concentration. The nAChR agonist response is then calculated as a percentage of the ACh response.

[2] = target: T1, human nAChR alpha4alpha6beta2 (Homo sapiens, UniProt P17787+P43681+Q15825); assay: Agonist activity, two-electrode voltage clamp in Xenopus oocytes (Example 5); type: cell-based; details: versus ACh response
T1 construct: expressed in transfected cells; host or cells: Xenopus laevis oocytes (cDNA injection)
T1 sequence (P43681 29-627 limits assumed): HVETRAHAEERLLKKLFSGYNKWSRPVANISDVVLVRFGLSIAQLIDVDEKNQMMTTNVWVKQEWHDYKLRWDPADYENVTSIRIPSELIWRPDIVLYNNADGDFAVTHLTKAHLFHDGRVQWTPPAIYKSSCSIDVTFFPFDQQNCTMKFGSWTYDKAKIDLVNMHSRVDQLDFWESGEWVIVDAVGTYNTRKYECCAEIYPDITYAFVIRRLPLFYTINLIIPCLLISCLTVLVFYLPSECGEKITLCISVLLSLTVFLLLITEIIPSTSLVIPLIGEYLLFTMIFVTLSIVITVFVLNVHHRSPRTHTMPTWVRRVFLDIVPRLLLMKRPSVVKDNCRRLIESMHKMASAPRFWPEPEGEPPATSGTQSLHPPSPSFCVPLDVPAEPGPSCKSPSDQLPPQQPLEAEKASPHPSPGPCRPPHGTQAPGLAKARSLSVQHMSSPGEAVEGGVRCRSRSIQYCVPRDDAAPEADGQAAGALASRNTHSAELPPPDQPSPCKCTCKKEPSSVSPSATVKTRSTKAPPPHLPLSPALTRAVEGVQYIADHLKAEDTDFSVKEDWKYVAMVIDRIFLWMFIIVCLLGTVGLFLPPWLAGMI
T1 sequence (Q15825 26-494): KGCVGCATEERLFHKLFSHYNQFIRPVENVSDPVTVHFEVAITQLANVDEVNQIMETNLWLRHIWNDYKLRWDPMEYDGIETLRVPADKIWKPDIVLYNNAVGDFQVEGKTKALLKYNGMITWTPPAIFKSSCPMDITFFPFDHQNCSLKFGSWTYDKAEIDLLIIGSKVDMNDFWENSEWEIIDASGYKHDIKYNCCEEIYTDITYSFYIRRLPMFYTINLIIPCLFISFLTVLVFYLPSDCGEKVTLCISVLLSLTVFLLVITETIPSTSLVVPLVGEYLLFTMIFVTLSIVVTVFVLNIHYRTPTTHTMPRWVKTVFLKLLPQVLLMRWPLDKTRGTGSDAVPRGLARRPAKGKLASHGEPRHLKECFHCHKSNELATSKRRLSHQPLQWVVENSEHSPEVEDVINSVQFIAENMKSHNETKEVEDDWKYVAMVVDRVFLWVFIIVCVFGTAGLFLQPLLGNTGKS
T1 sequence (P17787 26-502): as the sequence (P17787 26-502) above
Method: All experiments were carried out at human nAChRs expressed in Xenopus oocytes using the method of cDNA expression. Xenopus oocytes were prepared and injected using standard procedures.
Briefly, ovaries were harvested from Xenopus Laevis females that have been deeply anesthetized by cooling at 4° C. and Tricaine methanesulfonate (MS-222 at a concentration of 150 mg/L) in sodium bicarbonate (300 mg/L). Once anesthetized the animal was decapitated and pithed following the rules of animal rights from the Geneva canton. A small piece of ovary was isolated for immediate preparation while the remaining part was placed at 4° C. in a sterile Barth solution containing in mM NaCl 88, KCl 1, NaHCO32.4, HEPES 10, MgSO4.7H2O 0.82, Ca(NO3)2.4H2O 0.33, CaCl2.6H2O 0.41, at pH 7.4, and supplemented with 20 μg/ml of kanamycin, 100 unit/ml penicillin. All recordings were performed at 18° C. and cells superfused with OR2 medium containing in mM: NaCl 88, KCl 2.5, HEPES 5, CaCl2.2H2O 1.8, MgCl2.6H2O 1, pH 7.4.
Currents evoked by ACh or other agonists were recorded using an automated process equipped with standard two-electrode voltage-clamp configuration (TEVC). Data were captured and analyzed using a HiQScreen proprietary data acquisition and analysis software running under Matlab (Mathworks Inc.).
Agonist Preparation: See Example 1. […] The test concentration of acetylcholine chloride was 1280 micromolar.
Experimental Procedures: Injections of cDNAs encoding for the human alpha3beta4, alpha3alpha5beta4, alpha4beta2, alpha4alpha6beta2, and alpha7 were performed in at least 95 oocytes using a proprietary automated injection device. Cellular receptor expression was examined at least two days later. Oocytes were poked with two electrodes and their membrane potential maintained, unless indicated, at −80 mV throughout the experiment.
A protocol to determine agonistic activity in the oocytes expressing the nAChRs was developed. Oocytes expressing a nAChR subtype were exposed to a brief test pulse of acetylcholine (1280 micromolar) while the holding current and response was evaluated. Cells displaying robust currents were washed for 90 seconds. The cells were then exposed to a series of increasing concentrations of a nAChR agonist for 10 seconds each at two minute intervals. The nAChR agonist test concentrations were 0.1, 0.3, 1, 3, 10, 30, 100, 300 (micromolar). The current evoked from exposure to the agonist at each concentration was recorded. For oocytes expressing alpha7 nAChRs, exposure to the agonist was reduced to 5 seconds. This process was repeated for each agonist tested against each type of nAChR expressing cell.

[3] = Pharmacokinetics in human subjects after 28 days of intranasal administration (Example 7); type: in vivo
Method: Blood plasma for the patients was collected on Day 29 predose (time 0) and after a series of time points (10 min, 20 min, 30 min, 1 hr, 2 hrs, 4 hrs, 5 hrs, 6 hrs, 7 hrs, 8 hrs, and 24 hrs) after a single administration of drug. The blood plasma was analyzed for Compound 1.
The following pharmacokinetic parameters for Compound 1 were calculated: • Cmax: Maximum observed concentration, observed by inspection of individual study participant plasma concentration time plots. • Tmax: Time of maximum observed concentration, obtained directly from the observed concentration time data. • AUClast: The area under the plasma concentration time curve, from time 0 to the last measurable non-zero concentration, calculated by a combination of linear and logarithmic trapezoidal methods (Linear up/log down method). • AUC0-4h: The area under the plasma concentration time curve, from time 0 to the 4 h time point, calculated by a combination of linear and logarithmic trapezoidal methods (Linear up/log down method). • AUCinf: The area from zero time (pre-dose) extrapolated to infinite time (AUCinf) will be calculated as follows: AUCinf=AUClast+Cz/λz. • AUC % Extrap: The percentage of AUCinf obtained by extrapolation (AUC % Extrap) will be calculated as follows:
[formula] • Half-life: Terminal elimination half-life.

[4] = Max, N=7, Day 29 dose after 28 days BID
[5] = Min, N=7, Day 29 dose after 28 days BID
[6] = human, plasma, other: intranasal spray, […] Compound 1, 50 μL spray in each nostril, Max, N=7, Day 29 dose after 28 days BID
[7] = human, plasma, other: intranasal spray, […] Compound 1, 50 μL spray in each nostril, Mean, N=7, Day 29 dose after 28 days BID
[8] = human, plasma, other: intranasal spray, […] Compound 1, 50 μL spray in each nostril, Median, N=7, Day 29 dose after 28 days BID

C(=C\[C@H]1CCNC1)/c1cncnc1 [Compound 1, (R)-5-((E)-2-pyrrolidin-3-ylvinyl)pyrimidine]
agonist character [1]: partial agonist
agonist character [2]: full agonist
AUC % Extrap [3, 4]: 41.1%
Tmax [3, 4]: 1.2 h
AUC % Extrap ([3]; Mean, N=7, Day 29 dose after 28 days BID): 21.3%
AUC % Extrap ([3]; Median, N=7, Day 29 dose after 28 days BID): 23.3%
AUC % Extrap [3, 5]: 3.69% and 3.67%
AUCinf [3, 5]: 1.21 ng·h/mL
AUClast [3, 5]: 0.801 ng·h/mL
Cmax [3, 5]: 0.621 ng/mL
Tmax [3, 5]: 0.17 h
half-life [3, 5]: 0.852 h
half-life ([3]; human, plasma, inhaled or intranasal, […] Compound 1, 50 μL spray in each nostril, Mean, N=7, Day 29 single intranasal dose of […] Compound 1 (2.0% hemigalactarate salt) after 28 days BID, 50 μL per nostril, read-out: Half-life (converted)): 1.58 ± 0.818 h
Cmax ([3]; human, plasma, other: intranasal spray, […] Compound 1, 50 μL spray in each nostril, Max (individual subject maximum), N=7, Day 29 dose after 28 days BID, read-out: Cmax): 5.49 ng/mL
AUC(0-inf) [3, 6]: 12.5 ng·h/mL
AUC(0-t) [3, 6]: 12.1 ng·h/mL
half-life ([3]; human, plasma, other: intranasal spray, […] Compound 1, 50 μL spray in each nostril, Max, N=7, Day 29 dose after 28 days BID, read-out: Half-life (converted)): 2.83 h
AUC(0-inf) [3, 7]: 6.22 ± 4.63 ng·h/mL
AUC(0-t) [3, 7]: 5.22 ± 4.52 ng·h/mL
Cmax ([3]; human, plasma, other: intranasal spray, […] Compound 1, 50 μL spray in each nostril, Mean, N=7, Day 29 dose after 28 days BID, read-out: Cmax): 2.26 ± 1.96 ng/mL
Tmax ([3]; human, plasma, other: intranasal spray, […] Compound 1, 50 μL spray in each nostril, Mean, N=7, Day 29 dose after 28 days BID, read-out: Tmax): 0.7 h
AUC(0-inf) [3, 8]: 5.67 ng·h/mL
AUC(0-t) [3, 8]: 4.35 ng·h/mL
Cmax ([3]; human, plasma, other: intranasal spray, […] Compound 1, 50 μL spray in each nostril, Median, N=7, Day 29 dose after 28 days BID, read-out: Cmax): 1.35 ng/mL
half-life ([3]; human, plasma, other: intranasal spray, […] Compound 1, 50 μL spray in each nostril, Median, N=7, Day 29 dose after 28 days BID, read-out: Half-life (converted)): 1.12 h
Tmax ([3]; human, plasma, other: intranasal spray, […] Compound 1, 50 μL spray in each nostril, Median, N=7, Day 29 dose after 28 days BID, read-out: Tmax): 0.5 h
C0 ([3]; human, plasma, other: intranasal spray, […] Compound 1, 50 μL spray in each nostril, Day 29 predose after 28 days BID, detected in 4 out of 7 subjects, read-out: mean plasma concentration at time zero (predose)): 0.264 ng/mL
concentration at 1 h ([3]; human, plasma, other: intranasal spray, […] Compound 1, 50 μL spray in each nostril, at 1 h after intranasal administration on Day 29, read-out: peak of mean plasma exposure): 2.07 ng/mL
concentration at 24 h ([3]; human, plasma, other: intranasal spray, […] Compound 1, 50 μL spray in each nostril, no subject above lower limit of quantification, read-out: plasma concentration at 24 h post administration): < 0.2 ng/mL
fraction cleared from systemic circulation before the next administration ([3]; if administered every 12 hours (4 half-lives), from maximum individual half-life): > 94%
